Results as given in patent US5187157A, “Peptide boronic acid inhibitors of trypsin-like proteases” (Du Pont Merck Pharmaceutical Company, priority 1988, dated 1993).
pKi: −log10 of the molar value.

What was measured:
plasma [1] = details: at 1 μM; Green et al.; cited from earlier work
normal human plasma [2] = test: Prothrombin times (PT), blood coagulation in vitro; type: biochemical; details: for Calc. Concentration 2 × XPT: approximate concentration required to increase PT two fold
Experimental: (§1) The effectiveness of inhibitors in reactions in which they compete with natural substrates for target enzymes is measured in vitro in blood coagulation assays. Two different assays are used, the APTT (activated partial thromboplastin times) and PT (prothrombin times) assays. These assays mimic the blood clotting process in vivo. Blood coagulation occurs through either of two pathways, each consisting of a cascades of zymogen activation steps. The pathways are termed the intrinsic and the extrinsic pathways (see L. Lorand, Methods in Enzymology 45: 31-37 (1976). The intrinsic pathway is initiated by negatively charged surfaces in which plasma kallikrein, factor XII and factor […] are activated and then factors IX and X and prothrombin are activated in calcium dependent steps. Thrombin, the last protease in the cascade, hydrolyses fibrinogen to fibrin which results in clot formation. In the APTT assay, plasma components are activated by exposure to negatively charged surfaces and then clotting times are measured after calcium is added to the system. In the extrinsic pathway, tissue thromboplastin activates factor VII which then activates factor X leading to the activation of thrombin. These events are measured in the prothrombin times assay.
For PT assays, inhibitor solutions (0.100 mL) were incubated with normal human plasma (0.100 mL) for 2 min at 37°.

Human thrombin = target: T1, Human thrombin (Homo sapiens, UniProt P00734); test: Inhibition of Thrombin (Esterase Activity); type: biochemical; details: inhibitor 5 nM; activity remaining 10 to 20 min after initiation
T1 construct: purchased R.Q.P. Laboratories, South Bend, IN Lot HT102
Experimental: In the Examples which follow, the hydrolytic activity of each enzyme is measured in both the presence and absence of inhibitor and the percent enzyme activity determined. […] A steady state is reached fairly rapidly and nears completion within 5 min. Activity is evaluated between 10-20 min after the components are mixed to insure that reaction components are at equilibrium. The lowest concentration of inhibitor tested is determined by the estimated concentration of enzyme. […] The maintenance of pseudo-first-order reaction conditions and the sensitivity of the respective assays sets the lowest limit level of inhibitor tested at 10 nM for kallikrein inhibitors and 5 nM for thrombin inhibitors.
A stock solution of thrombin was prepared in 0.010M PIPES Buffer, pH 6.0, containing 0.75 M sodium chloride. […] The initial concentration of substrate was 0.10 mM and the concentration of thrombin was 1.0 nM (based on weight).

normal human plasma [3] = test: Activated partial thromboplastin times (APTT), blood coagulation in vitro; type: biochemical; details: for Calc. Concentration 2 × APTT: approximate concentration required to increase APTT two fold
Experimental: as §1
The effect of protease inhibitors on blood coagulation in vitro was determined by measuring their effects on two different clinical parameters, the activated partial thromboplastin times (APTT) and prothrombin times (PT). Reagents for each of these assays were supplied by General Diagnostics, Jessup MD. Stock solutions of inhibitors were prepared in […] HEPES buffer, pH 7.5, containing 0.10 M sodium chloride. For the APTT assay, the inhibitor solution (0.100 mL) was incubated with normal human plasma (0.100 mL) and automated APTT reagent (0.100 mL). After incubation for 5.0 min at 37°, calcium chloride (0.100 mL) was added and the clotting times, measured in seconds, was determined on a fibrameter. The effects of the varying concentrations of inhibitor on blood clotting times compared with the clotting times of controls run in the absence of inhibitor, are shown in Table 3.

[4] = Stability of Inhibitors in Human Plasma As Measured By APTT; type: in vitro ADME; details: 250 nM in APTT assay
Experimental: The stability of inhibitors in plasma was determined by their ability to inhibit blood coagulation. First, a stock solutions (1.0 μM) of the inhibitors to be tested in 25 mM HEPES buffer, pH 7.5, containing 0.10 M sodium chloride were diluted 50% with normal human plasma. The mixtures were made at 0°, then aliquots (0.200 mL) were removed and incubated for 2 min at 37°. An equal volume of automated APTT reagent was added and clotting times were measured as described in Examples 111-117. The final concentration of inhibitor during the clotting assays was 250 nM. Values for compounds E and F were determined simultaneously with the Control. Values for compounds A, B and C were obtained on a different day.

[5] = Stability of Inhibitors in Buffer (thrombin assay); details: for Percent Thrombin activity: 1.0 μM; for stability in phosphate buffer at pH 7.5 (inhibitory activity): phosphate buffer pH 7.5
Experimental: Samples of the inhibitors are removed at increasing time intervals and their ability to delay clotting is measured at each interval.
Inhibitors, each at a concentration of 1.0 μM, were incubated at room temperature in 0.20 M sodium phosphate buffer, pH 7.5, containing 0.20 M sodium chloride and 0.10% PEG.

Sprague Dawley CD Rats = test: In Vivo Inhibition of Croton Oil Induced Inflammation (ear swelling); details: Table 14; dose=100 μg, essentially the same conditions
Experimental: Two solutions were prepared, the first consisting of 5% croton oil, a known inflammatory agent, in an acetone carrier (Croton Solution) and the second consisting of 5% croton oil in an acetone carrier to which 10 mg/mL of a compound of the invention was added (Compound Solution). The Croton Solution (10 μL), or alternatively the Compound Solution (10 μL), was applied to the right ear of each animal (Sprague Dawley CD Rats, 130-140 g, supplied by Charles River Labs, Inc., Wilmington, MA). […] "SE" denotes standard error.

rats = details: Tremoli et al.; cited from earlier work
thrombin = details: literature; cited from earlier work
rabbit = rabbit model; Shaw et al.; cited from earlier work
plasma [6] = test: Heparin effect on plasma clotting times; type: biochemical; details: assuming molecular weight 15,000 and 150 units/mg
plasma [7] = details: 0.2-0.4 units of heparin per mL of plasma; cited from earlier work
[8] = incubation in human plasma 0.5 h
[9] = incubation in human plasma 24 h

CC1CNc2c(cccc2S(=O)(=O)N[C@@H](CCCNC(=N)N)C(=O)N2CC[C@@H](C)C[C@@H]2C(=O)O)C1 (stereo partly drawn) [(2R,4R)-4-methyl-1[N^2 -{(3-methyl-1,2,3,4-tetrahydro-8-quinolinyl)sulfonyl}-L-arginyl]-2-piperid inecarboxylic acid]
increase of prothrombin times of plasma (plasma [1]): 2 fold

CC(C)(C)OC(=O)NC(Cc1ccccc1)C(=O)N1CCCC1C(=O)NC(CCCN=C(N)N)B1OC2CC3CC(C3(C)C)C2(C)O1.O=S(=O)(O)c1ccccc1 (stereo not drawn) [A, Boc-(D)Phe-Pro-boroArg-C10 H16.benzene sulfonic acid]
Calc. Concentration 2 × XPT (normal human plasma [2]): 800 nM | Prothrombin Times (normal human plasma [2]; inhibitor 12.5 nM): 16.4 s | Prothrombin Times (normal human plasma [2]; inhibitor 250 nM): 17.1 s | Prothrombin Times (normal human plasma [2]; inhibitor 500 nM): 21.5 s | Prothrombin Times (normal human plasma [2]; inhibitor 750 nM): 26.7 s | Prothrombin Times (normal human plasma [2]; inhibitor 875 nM): 40.1 s | Prothrombin Times (normal human plasma [2]; inhibitor 1000 nM): > 200 s | Percent Activity (Human thrombin): 3% | Calc. Concentration 2 × APTT (normal human plasma [3]): 230 nM | Activated Partial Thromboplastin Times (normal human plasma [3]; inhibitor 125 nM): 36.6 s | Activated Partial Thromboplastin Times (normal human plasma [3]; inhibitor 200 nM): 40.2 s | Activated Partial Thromboplastin Times (normal human plasma [3]; inhibitor 250 nM): 81.2 s | Activated Partial Thromboplastin Times (normal human plasma [3]; inhibitor 300 nM): 113.3 s | Activated Partial Thromboplastin Times (normal human plasma [3]; inhibitor 350 nM): 128.7 s | Clotting Time ([4]; incubation in human plasma 0 h): 81.2 s | Clotting Time [4, 8]: 84.7 s | Clotting Time ([4]; incubation in human plasma 1 h): 79.7 s | Clotting Time ([4]; incubation in human plasma 2 h): 86.7 s | Clotting Time ([4]; incubation in human plasma 4 h): 98.2 s | Clotting Time [4, 9]: 92.2 s | Percent Thrombin activity ([5]; 0 hr in 0.20 M sodium phosphate buffer pH 7.5, room temperature): 3.3% | Percent Thrombin activity ([5]; 6.5 hr in 0.20 M sodium phosphate buffer pH 7.5, room temperature): 1.6% | Percent Thrombin activity ([5]; 24 hr in 0.20 M sodium phosphate buffer pH 7.5, room temperature): 0.8% | stability in phosphate buffer at pH 7.5 (inhibitory activity) [5]: little loss of inhibitor activity | Percent Inhibition (Sprague Dawley CD Rats): 59%

CC(C)(C)OC(=O)N[C@H](Cc1ccccc1)C(=O)N1CCC[C@H]1C(=O)N[C@H](C=O)CCCNC(=N)N [Boc-(D)Phe-Pro-Arg-H]
size of venous thrombosis (rats): reduces the size of venous thrombosis

Br.CC(C)(C)OC(=O)NC(Cc1ccccc1)C(=O)N1CCCC1C(=O)NC(CCCSC(=N)N)B1OC2CC3CC(C3(C)C)C2(C)O1 (stereo not drawn) [C, Boc-(D)Phe-Pro-boroIrg-C10 H16.HBr]
Calc. Concentration 2 × XPT (normal human plasma [2]): 650 nM | Prothrombin Times (normal human plasma [2]; inhibitor 12.5 nM): 16.8 s | Prothrombin Times (normal human plasma [2]; inhibitor 250 nM): 20.8 s | Prothrombin Times (normal human plasma [2]; inhibitor 500 nM): 27.2 s | Prothrombin Times (normal human plasma [2]; inhibitor 750 nM): 44 s | Prothrombin Times (normal human plasma [2]; inhibitor 1000 nM): 152.7 s | Percent Activity (Human thrombin): 3% | Calc. Concentration 2 × APTT (normal human plasma [3]): 200 nM | Activated Partial Thromboplastin Times (normal human plasma [3]; inhibitor 62.5 nM): 39.2 s | Activated Partial Thromboplastin Times (normal human plasma [3]; inhibitor 125 nM): 46.9 s | Activated Partial Thromboplastin Times (normal human plasma [3]; inhibitor 200 nM): 67 s | Activated Partial Thromboplastin Times (normal human plasma [3]; inhibitor 250 nM): 160 s | Activated Partial Thromboplastin Times (normal human plasma [3]; inhibitor 300 nM): 197.8 s | Activated Partial Thromboplastin Times (normal human plasma [3]; inhibitor 350 nM): 301.8 s | Clotting Time ([4]; incubation in human plasma 0 h): 203.2 s | Clotting Time [4, 8]: 207.2 s | Clotting Time ([4]; incubation in human plasma 1 h): 214.2 s | Clotting Time ([4]; incubation in human plasma 2 h): 203.7 s | Clotting Time ([4]; incubation in human plasma 4 h): 209.7 s | Clotting Time [4, 9]: 248.7 s | stability in phosphate buffer at pH 7.5 (inhibitory activity) [5]: little loss of inhibitor activity | Percent Inhibition (Sprague Dawley CD Rats): 76%

N=C(N)NCCC[C@@H](C=O)NC(=O)[C@@H]1CCCN1C(=O)[C@H](N)Cc1ccccc1 [H-(D)Phe-Pro-Arg-H]
pKi (thrombin): 7.12

N=C(N)NCCC[C@H](NC(=O)[C@@H]1CCCN1C(=O)[C@H](N)Cc1ccccc1)C(=O)CCl [H-(D)Phe-Pro-ArgCH2 Cl]
prevention of coronary thrombosis (rabbit): effective in the prevention of coronary thrombosis

heparin
molar concentration increasing clotting times 2-2.5 fold (plasma [6]): 86 to 170 nM | increase of clotting times (plasma [7]): 2-2.5 fold
